Here are results for 14 molecules from patent US7071316B1, “Human Akt-3” (Janssen Pharmaceutica N.V., priority 1998, dated 2006).

Data set [1] concerns histone H2B.
The target of data set [2] is T1, T305D,S472D variant of Akt-3 (Homo sapiens, UniProt Q9Y243, S472D/T305D).
T1 construct: made in house; host or cells: E. coli BL21 DE3 (pGEX-4T-3)
The data set can be described thus: Akt-3 histone H2B phosphorylation assay (GST fusion protein from E. coli, phosphorimager after SDS-PAGE). It counts as biochemical. The following applies: for effect on the activity of the T305D,S472D variant of Akt-3: tested at a concentration of 10 FM. Here is the method:
After 30 minutes, the reaction was terminated and the extent of H2B phosphorylation quantified on a phosphorimager following SDS-PAGE.
The pGEX expression constructs were transformed into E. coli strain BL21 DE3 and GST-fusion proteins of wild-type and mutated Akt-3 were purified on glutathione sepharose according to the manufacturers instructions (Amersham Pharmacia Biotech, Uppsala, Sweden). The protein eluted from the beads was stored in 50% glycerol at −20° C. Akt activity was assessed by incubating 0.8 Fg of the purified enzyme for 30 minutes at room temperature (unless otherwise indicated) in a buffer containing 10 mM HEPES, 10 mM MgCl2, 1 mM DTT, 0.1 mg/ml histone H2B at pH 7.0, in a total volume of 25 Fl and containing 10 FCi [γ-^32P]-ATP (6000 Ci/mmol). […] The reaction was stopped by the addition of 25 Fl sample buffer for SDS-PAGE. The results were quantified on a phosphorimager following SDS-PAGE on a 15% (w/v) acrylamide gel.

The test system of data set [3] is PKC. The data set can be described thus: Inhibition of PKC (literature, Davis et al., 1992). In kind it is biochemical. The following applies: more potent inhibitor of PKC than of Akt-3.
Data set [4] concerns PKC. The following applies: Davis, et al., 1992; cited from earlier work.
For data set [5], the system named is Akt-3. Description: Activation of HA-tagged Akt-3 by IGF in transfected HEK-293 cells (immunoprecipitate, Crosstide phosphorylation). In kind it is cell-based, human. The protocol:
FIG. 3 is an illustration of phosphorylation of histone H2B by Akt-3 variants. (A) Akt-3 was expressed as a GST fusion protein in E. Coli. To assess hAkt-3 activity, Histone H2B was incubated with GST-Akt-3 and GST-Akt-3 variants for the indicated time and the extent of phosphorylation assessed after SDS-PAGE. The variants of Akt-3 are designated: W.T., wild type; T305D, Thr^305 mutated to Asp; S472D, Ser^472 mutated to Asp; T305D,S472D, both Thr^305 and Ser^472 mutated to Asp. No significant phosphorylation was observed when GST was used in place of GST-Akt. […] Samples were analysed by blotting for the HA-tag (upper panel) or with a phosphospecific antibody which recognises phosphorylated ser^472 (lower panel). (C) Akt activity in HA-immuno-precipitates from samples prepared as described above was assessed by measuring phosphorylation of a peptide substrate (Crosstide). The results are expressed as the increase in activity compared to unstimulated cells transfected with empty vector (mean±s.e.m., n=7).
For expression in HEK-293 cells, cells were transfected with pCDNA-3 Akt-3 constructs as described previously (Alessi et al 1996). […] Akt activity was assessed in immune complexes by measuring phosphorylation of a peptide substrate (Crosstide) in the presence of 1 μM PKI (PKA inhibitor) and 1 μM […] (PKC inhibitor) as described.

Data set [6] relates to Akt-3. The data set can be described thus: Activation of HA-tagged Akt-3 by IGF-1 in transfected Cos-7 cells (HA immunoprecipitates). In kind it is cell-based, human. The following applies: stimulation with IGF-1 10 ng/ml, n=2. Here is the method:
Akt-3 was transiently expressed in Cos-7 by calcium phosphate transfection of the cells with the construct HA-hAkt-3/pcDNA-3. The cells were stimulated with 10 ng/ml IGF-1 for 30 minutes, lysed and Akt-3 immunoprecipitated with mAb 12CA5. Akt-3 activity was assessed as described below.

The target of data set [7] is histone H2B. This is another data set of the same source.

Several values for one entry are separate records, joined by “and”; a condition that tells them apart may be missing. Equal entries are not always repeated.

T1 sequence (Q9Y243 whole entry T305D/S472D): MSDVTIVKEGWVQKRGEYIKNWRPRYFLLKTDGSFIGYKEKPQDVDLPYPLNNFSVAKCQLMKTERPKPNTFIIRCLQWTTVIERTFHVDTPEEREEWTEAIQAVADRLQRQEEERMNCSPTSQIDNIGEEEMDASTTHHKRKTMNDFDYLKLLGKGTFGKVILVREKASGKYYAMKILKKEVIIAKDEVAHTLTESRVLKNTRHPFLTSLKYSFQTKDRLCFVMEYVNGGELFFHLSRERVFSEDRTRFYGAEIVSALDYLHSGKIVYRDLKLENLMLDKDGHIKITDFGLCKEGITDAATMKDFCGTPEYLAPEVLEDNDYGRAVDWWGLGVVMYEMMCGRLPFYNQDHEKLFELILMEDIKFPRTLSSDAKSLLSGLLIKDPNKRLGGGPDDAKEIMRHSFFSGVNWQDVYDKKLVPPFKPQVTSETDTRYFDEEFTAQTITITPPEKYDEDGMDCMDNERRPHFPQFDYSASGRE

Take “GST-Akt-3 T305D,S472D (construct hAKT-3(T305D/S472D)/pGEX-4T-3)”: in the data set on histone H2B [1], the “initial rate of phosphorylation of histone H2B, relative to the wild-type enzyme” value (from here on “initial rate … relative to the wild-type enzyme”) is 3.2-fold increase.

`CN([C@@H](Cc1ccc(OS(=O)(=O)c2cccc3cnccc23)cc1)C(=O)N1CCN(c2ccccc2)CC1)S(=O)(=O)c1cccc2cnccc12` [KN-62]: the “effect on the activity of the T305D,S472D variant of Akt-3” value (from here on “effect on the activity”) in data set [2] is “no significant effect”.

For the molecule `Cn1cc(C2=C(c3cn(CCCSC(=N)N)c4ccccc34)C(=O)NC2=O)c2ccccc21` [Ro 31-8220], the “inhibition of Akt-3 (in words)” value in data set [2] (discussion summary of the inhibitor panel) is “potently inhibited”. Further, in the data set with PKC [3], the “potency as inhibitor of PKC relative to Akt-3” value is recorded as “approximately 100 fold”. The IC50 (as a rule, the concentration that inhibits the measured activity by half) in the data set with PKC [4] was 0.1 nM.

As to “IGF-1: extracellular stimulus (growth factor) used to activate Akt-3 in transfected cells”, the “increase of Akt-3 activity in anti-HA immunoprecipitates” value with Akt-3 [5] (upon treatment with IGF (50 ng/ml), above that in untransfected cells, HEK-293) is reported as about 60 fold. Moreover, the “increase of Akt-3 activity in HA immunoprecipitates” value with Akt-3 [6] was 1.5 fold and 1.9 fold.

For `O=c1cc(N2CCOCC2)oc2c(-c3ccccc3)cccc12` [CY29 4002], the “inhibition of activation of Akt-3” value in the data set with Akt-3 [5] (prior treatment, 100 FM, HEK-293 cells stimulated with IGF, data not shown) amounted to 94%.

On to `CCCCCCOC(=O)[C@]1(O)C[C@@H]2O[C@@]1(C)n1c3ccccc3c3c4c(c5c6ccccc6n2c5c31)C(=O)NC4` [KT5720], for which, in data set [2], the “effect on the activity” value is “no significant effect”.

On to “GST-Akt-3 T305D (construct hAKT-3(T305D)/pGEX-4T-3)”, for which the “initial rate … relative to the wild-type enzyme” value with histone H2B [1] is 2.0-fold increase.

For the molecule `O=S(=O)(NCCNC/C=C/c1ccc(Br)cc1)c1cccc2cnccc12` [H-89], in data set [2], the “effect on the activity” value is “no significant effect”.

`O=S(=O)(NCCNCC=Cc1ccccc1)c1cccc2cnccc12` [H-88]: the “effect on the activity” value in data set [2] is given as “no significant effect”.

Take `CN(C)CCCn1cc(C2=C(c3c[nH]c4ccccc34)C(=O)NC2=O)c2ccccc21` [GF-109203×]: in data set [2], the “effect on the activity” value was “no significant effect”.

In the case of “GST-Akt-3 S472D (construct hAKT-3(S472D)/pGEX-4T-3)”, the “initial rate … relative to the wild-type enzyme” value in the data set with histone H2B [1] is recorded as “increased the initial rate only 1.4 fold”.

On to `COc1cccc(-c2cc(=O)c3ccccc3o2)c1N` [PD 98059], for which the “effect on the activity” value in data set [2] is “no significant effect”.

Take `Cn1c2ccccc2c2c3c(c4c5ccccc5n(CCC#N)c4c21)CNC3=O` [Go 6976]: in data set [2], the “effect on the activity” value is recorded as “no significant effect”.

B1: GST-Akt-3 wild type (construct hAKT-3(WT)/pGEX-4T-3) (protein)
chain: MSDVTIVKEGWVQKRGEYIKNWRPRYFLLKTDGSFIGYKEKPQDVDLPYPLNNFSVAKCQLMKTERPKPNTFIIRCLQWTTVIERTFHVDTPEEREEWTEAIQAVADRLQRQEEERMNCSPTSQIDNIGEEEMDASTTHHKRKTMNDFDYLKLLGKGTFGKVILVREKASGKYYAMKILKKEVIIAKDEVAHTLTESRVLKNTRHPFLTSLKYSFQTKDRLCFVMEYVNGGELFFHLSRERVFSEDRTRFYGAEIVSALDYLHSGKIVYRDLKLENLMLDKDGHIKITDFGLCKEGITDAATMKTFCGTPEYLAPEVLEDNDYGRAVDWWGLGVVMYEMMCGRLPFYNQDHEKLFELILMEDIKFPRTLSSDAKSLLSGLLIKDPNKRLGGGPDDAKEIMRHSFFSGVNWQDVYDKKLVPPFKPQVTSETDTRYFDEEFTAQTITITPPEKYDEDGMDCMDNERRPHFPQFSYSASGRE
In the case of B1, the “phosphorylation of histone H2B” value in the data set with histone H2B [7] is “The purified enzyme was able to phosphorylate histone H2B”.
